Measurements reported in patent publication US7396858B2, “Biguanide derivative and therapeutic agent for diabetes containing the same” (Chugai Seiyaku Kabushiki Kaisha, priority 2002, dated 2008).
“And” between values parts separate entries of the source, which are not always exact repeats. Identical values can stand only once.

System: female mice (C57BLKS/J-m +/+ Lepr<db> (db/db))
Assay: Oral glucose tolerance test (blood glucose and blood lactic acid levels)
Assay type: in vivo
Details: subcutaneous, AUC up to 2 hours vs solvent group; for Blood glucose reduction rate (%): 30 min before oral glucose 3 g/kg; for Blood lactic acid level increase rate (%): oral glucose tolerance test
Description: Measurement of blood glucose reduction rate and blood lactic acid levels by the aforementioned oral glucose tolerance test may be carried out by a publicly known method, and preferred methods are described below. Specifically, 11- to 17-week-old female mice (C57BLKS/J-m +/+ Lepr (db/db)) are starved for 18-24 hours. A group of five or six mice is used for the test. Blood is sampled from the tail for measurement of the blood glucose levels and blood lactic acid levels before treatment as controls. After sampling, the biguanide derivative is dissolved in phosphate-buffered physiological saline at a suitable concentration and subcutaneously administered at a dose of 5 ml/kg. As controls are prepared mice administered only the solvent. Glucose is then administered orally at a dose of 3 g/6 ml/kg at 30 minutes after administration of the compound or solvent as an oral glucose tolerance test. Blood is sampled from the tail for measurement of the blood glucose levels and the blood lactic acid levels 30 minutes, 1 hour and 2 hours after glucose administration. The blood glucose levels are measured using a New Blood Sugar Test (Roche Diagnostics) or a Glucose CII-Test Wako (Wako Pure Chemical Industries, Ltd.). The blood lactic acid levels are measured using an “Asuka Sigma” (Sigma Diagnostics).
The blood glucose reduction rate and the blood lactic acid level increase rate are calculated according to the following formulas. Blood glucose reduction rate (%)=[(AUC for blood glucose increase level of solvent-administered group−AUC for blood glucose increase level of compound-administered group)/AUC for blood glucose increase level of solvent-administered group]×100
The blood lactic acid level increase rate is calculated according to the following formula. Blood lactic acid level increase rate (%)=[(AUC for blood lactic acid level of compound-administered group−AUC for blood lactic acid level of solvent-administered group)/AUC for blood lactic acid level of solvent-administered group]×100
Eleven- to seventeen-week-old female mice (C57BLKS/J-m +/+ Lepr (db/db)) were starved for 18-24 hours, and a group of six mice was used for the test. Blood was sampled from the tail for measurement of the blood glucose levels and blood lactic acid levels before treatment. […] As a control, the solvent alone was subcutaneously administered to mice similarly.
Glucose was then administered orally at a dose of 3 g/6 ml/kg at 30 minutes after administration of the compound or solvent as an oral glucose tolerance test. Blood was sampled from the tail for measurement of the blood glucose levels and blood lactic acid levels 30 minutes, 1 hour and 2 hours after glucose administration. The blood glucose levels were measured using a New Blood Sugar Test (Roche Diagnostics) or a Glucose CII-Test Wako (Wako Pure Chemical Industries, Ltd.). The blood lactic acid levels were measured using an “Asuka Sigma” (Sigma Diagnostics).

| SMILES | Blood glucose reduction rate (%) (dosage 50 mg/kg) | Blood glucose reduction rate (%) (dosage 75 mg/kg) | Blood lactic acid level increase rate (%) (dosage 75 mg/kg) | Blood glucose reduction rate (%) (dosage 200 mg/kg) | Blood glucose reduction rate (%) (dosage 37.5 mg/kg) | Blood lactic acid level increase rate (%) (dosage 37.5 mg/kg) |
| --- | --- | --- | --- | --- | --- | --- |
| N=C(N)NC(=N)NCc1ccoc1 [1-[(Furan-3-yl)methyl]biguanide, 1-[(furan-3-yl)methyl]biguanide] | 40.3% | 65.5% | 9.7% | – | – | – |
| CN(C)C(=N)N=C(N)N [Metformin] | – | – | – | 56.0% and 41.8% | – | – |
| [H]/N=C(/N)N/C(=N/[H])NCCc1ccccc1 [Phenformin] | – | 64.5% and 78.0% and 60.8% and 61.4% and 72.8% and 69.6% | 93.6% and 151.6% and 94.7% and 120.8% and 141.1% and 114.8% | – | 39.5% and 72.7% | 46.4% and 83.1% |
